Patent US8389550B2, “Isoxazoles / O-pyridines with ethyl and ethenyl linker” (Hoffmann-La Roche Inc., priority 2009, dated 2013)

Target: T1, human GABA A α5 receptor (α5β3γ2) (Homo sapiens, UniProt P18507+P31644)
T1 construct: expressed in transfected cells; host or cells: HEK293 cells, transiently transfected; membranes prepared from cell pellets
Test: [3H]flumazenil competition binding assay, HEK293 cells expressing human receptors
Conditions: displacement of [3H]flumazenil (0.5 nM); HEK293 cells transiently expressing human α5β3γ2; means of two determinations; read-out: hKi GABA A α5
Description: Membrane Preparation and Binding Assay
The affinity of compounds at GABA A receptor subtypes was measured by competition for [3H]flumazenil (85 Ci/mmol; Roche) binding to HEK293 cells expressing rat (stably transfected) or human (transiently transfected) receptors of composition α1β3γ2, α2β3γ2, α3β3γ2 and α5β3γ2.
Cell pellets were suspended in Krebs-tris buffer (4.8 mM KCl, 1.2 mM CaCl2, 1.2 mM MgCl2, 120 mM NaCl, 15 mM Tris; pH 7.5; binding assay buffer), homogenized by polytron for ca. 20 sec on ice and centrifuged for 60 min at 4° C. (50000 g; Sorvall, rotor: SM24=20000 rpm). The cell pellets were resuspended in Krebs-tris buffer and homogenized by polytron for ca. 15 sec on ice. Protein was measured (Bradford method, Bio-Rad) and aliquots of 1 mL were prepared and stored at −80° C.
Radioligand binding assays were carried out in a volume of […] (96-well plates) which contained […] of cell membranes, [3H]flumazenil at a concentration of 1 nM for α1, α2, α3 subunits and 0.5 nM for α5 subunits and the test compound in the range of […]. Nonspecific binding was defined by 10^−5 M diazepam and typically represented less than 5% of the total binding. Assays were incubated to equilibrium for 1 hour at 4° C. and harvested onto GF/C uni-filters (Packard) by filtration using a Packard harvester and washing with ice-cold wash buffer (50 mM Tris; pH 7.5). After drying, filter-retained radioactivity was detected by liquid scintillation counting. Ki values were calculated using Excel-Fit (Microsoft) and are the means of two determinations.
Representative test results, obtained by the above described assay measuring binding affinity to HEK293 cells expressing human (h) receptors, are shown in table 1 below: […]

SMILES | Ki [nM]
CCCCc1noc(C)c1CCc1ccc(C(=O)NC2CCOC2)cn1 (stereo not drawn) [Example 18, 6-[2-(3-Butyl-5-methyl-isoxazol-4-yl)-ethyl]-N-(tetrahydro-furan-3-yl)-nicotinamide] | 58.6
Cc1onc(-c2ccccc2)c1CCc1ccc(C(=O)NC(C)C)cn1 [Example 16, N-Isopropyl-6-[2-(5-methyl-3-phenyl-isoxazol-4-yl)-ethyl]-nicotinamide] | 57.6
CCCCc1noc(C)c1/C=C/c1ccc(C(=O)N[C@@H](C)CO)cn1 [Example 14, 6-[(E)-2-(3-Butyl-5-methyl-isoxazol-4-yl)-vinyl]-N—((S)-2-hydroxy-1-methyl-ethyl)-nicotinamide] | 14.1
CCCCc1noc(C)c1CCc1ccc(C(=O)NC(C)CO)cn1 (stereo not drawn) [Example 17, 6-[2-(3-Butyl-5-methyl-isoxazol-4-yl)-ethyl]-N-(2-hydroxy-1-methyl-ethyl)-nicotinamide] | 49.4
CCCCc1noc(C)c1/C=C/c1ccc(C(=O)NC(C)C)cn1 [Example 8, 6-[(E)-2-(3-Butyl-5-methyl-isoxazol-4-yl)-vinyl]-N-isopropyl-nicotinamide] | 18.6
Cc1onc(-c2ccccc2)c1/C=C/c1ccc(C(=O)O)cn1 [Example 6, 6-[(E)-2-(5-Methyl-3-phenyl-isoxazol-4-yl)-vinyl]-nicotinic acid] | 38.6
CCCCc1noc(C)c1/C=C/c1ccc(C(=O)NCC(C)(C)O)cn1 [Example 11, 6-[(E)-2-(3-Butyl-5-methyl-isoxazol-4-yl)-vinyl]-N-(2-hydroxy-2-methyl-propyl)-nicotinamide] | 16.3

The remaining compounds from weak to strong by Ki, led by results:

Ki [nM] | SMILES
13.9 | COC(=O)c1ccc(/C=C/c2c(-c3ccccc3)noc2C)nc1 [Example 1, 6-[(E)-2-(5-Methyl-3-phenyl-isoxazol-4-yl)-vinyl]nicotinic acid methyl ester]
12.9 | CCCCc1noc(C)c1/C=C/c1ccc(C(=O)NC2CCOCC2)cn1 [Example 12, 6-[(E)-2-(3-Butyl-5-methyl-isoxazol-4-yl)-vinyl]-N-(tetrahydro-pyran-4-yl)-nicotinamide]
12.2 | CCCCc1noc(C)c1/C=C/c1ccc(C(=O)N[C@H](C)CO)cn1 [Example 13, 6-[(E)-2-(3-Butyl-5-methyl-isoxazol-4-yl)-vinyl]-N—((R)-2-hydroxy-1-methyl-ethyl)-nicotinamide]
8.9 | CCCCc1noc(C)c1/C=C/c1ccc(C(=O)NC2CCOC2)cn1 (stereo not drawn) [Example 9, 6-[(E)-2-(3-Butyl-5-methyl-isoxazol-4-yl)-vinyl]-N-(tetrahydro-furan-3-yl)-nicotinamide]
8.2 | CCCCc1noc(C)c1/C=C/c1ccc(C(=O)NC(C)CO)cn1 (stereo not drawn) [Example 10, 6-[(E)-2-(3-Butyl-5-methyl-isoxazol-4-yl)-vinyl]-N-(2-hydroxy-1-methyl-ethyl)-nicotinamide]
8.1 | CCCCc1noc(C)c1/C=C/c1ccc(C(=O)OC)cn1 [Example 7, 6-[(E)-2-(3-Butyl-5-methyl-isoxazol-4-yl)-vinyl]nicotinic acid methyl ester]
6 | Cc1onc(-c2ccccc2)c1/C=C/c1ccc(C(=O)NC2CCOCC2)cn1 [Example 3, 6-[(E)-2-(5-Methyl-3-phenyl-isoxazol-4-yl)-vinyl]-N-(tetrahydro-pyran-4-yl)-nicotinamide]
5.3 | CCCCc1noc(C)c1/C=C/c1ccc(C(=O)NC(CO)CO)cn1 [Example 15, 6-[(E)-2-(3-Butyl-5-methyl-isoxazol-4-yl)-vinyl]-N-(2-hydroxy-1-hydroxymethyl-ethyl)-nicotinamide]
5 | Cc1onc(-c2ccccc2)c1/C=C/c1ccc(C(=O)NC(C)C)cn1 [Example 2, N-Isopropyl-6-[(E)-2-(5-methyl-3-phenyl-isoxazol-4-yl)-vinyl]-nicotinamide]
2.9 | Cc1onc(-c2ccccc2)c1/C=C/c1ccc(C(=O)NC(C)CO)cn1 (stereo not drawn) [Example 5, N-(2-Hydroxy-1-methyl-ethyl)-6-[(E)-2-(5-methyl-3-phenyl-isoxazol-4-yl)-vinyl]-nicotinamide]
2 | Cc1onc(-c2ccccc2)c1/C=C/c1ccc(C(=O)NCCO)cn1 [Example 4, N-(2-Hydroxy-ethyl)-6-[(E)-2-(5-methyl-3-phenyl-isoxazol-4-yl)-vinyl]-nicotinamide]
